Columns and labels:
[1] = Bioavailability after a single oral tablet in beagle dogs (plasma LC/MS/MS, non-compartmental PK); type: in vivo; conditions: dog, male beagle dogs, fasted, pentagastrin pre-treated, single 25 mg strength tablet (dry granulation, 30% active); for bioavailability: read-out: % F (oral bioavailability)
Excerpt: The bioavailability of sodium (2R,5S,13aR)-7,9-dioxo-10-((2,4,6-trifluorobenzyl)carbamoyl)-2,3,4,5,7,9,13,13a-octahydro-2,5-methanopyrido[1′,2′:4,5]pyrazino[2,1-b][1,3]oxazepin-8-olate (Formula II) Form I was compared to the bioavailability of (2R,5S,13aR)-8-hydroxy-7,9-dioxo-N-(2,4,6-trifluorobenzyl)-2,3,4,5,7,9,13,13a-octahydro-2,5-methanopyrido[1′,2′:4,5]pyrazino[2,1-b][1,3]oxazepine-10-carboxamide (Formula I) Form III.
Each dosing group consisted of 6 male, non-naïve purebred beagle dogs. At dosing, the animals weighed between 10 to 13 kg. The animals were fasted overnight prior to dose administration and up to 4 hr after dosing. Each subject was pre-treated with pentagastrin (6 μg/kg) and dosed 30 minutes later with a single 25 mg strength tablet of Formula II Form I or Formula I Form III. Each subject was given 10 mL of water to aid in swallowing.
Serial venous blood samples (approximately 1 mL each) were taken from each animal at 0, 0.250, 0.483, 0.583, 0.750, 1.00, 1.50, 2.00, 4.00, 8.00, 12.0, and 24.0 hours after dosing. The blood samples were collected into Vacutainer™ tubes containing EDTA-K2 as the anti-coagulant and were immediately placed on wet ice pending centrifugation for plasma. An LC/MS/MS method was used to measure the concentration of the test compound in plasma. An aliquot of 100 μL of each plasma sample was added to a clean 96 well plate, and 400 μL of cold acetonitrile/internal standard solution (ACN)/(ISTD) was added. After protein precipitation, an aliquot of 110 μL of the supernatant was transferred to a clean 96-well plate and diluted with 300 μL of water. An aliquot of 25 μL of the above solution was injected into a TSQ Quantum Ultra LC/MS/MS system utilizing a Hypersil Gold C18 HPLC column (50×3.0 mm, 5 μm; Thermo-Hypersil Part #25105-053030). An Agilent 1200 series binary pump (P/N G1312A Bin Pump) was used for elution and separation, and an HTS Pal autosampler (LEAP Technologies, Carrboro, N.C.) was used for sample injection. A TSQ Quantum Ultra triple quadrupole mass spectrometer was utilized in selective reaction monitoring mode (Thermo Finnigan, San Jose, Calif.). Liquid chromatography was performed using two mobile phases: mobile phase A contained 1% acetonitrile in 2.5 mM ammonium formate aqueous solution with pH of 3.0, and mobile phase B contained 90% acetonitrile in 10 mM ammonium formate with pH of 4.6. Non-compartmental pharmacokinetic analysis was performed on the plasma concentration-time data. The resulting data are shown in Table 3: F (%) refers to oral bioavailability; AUC refers to area under the curve and is a measure of total plasma exposure of the indicated compound; Cmax refers to the peak plasma concentration of the compound after administration.

HIV = conditions: as discussed in co-pending U.S. Ser. No. 14/133,855 and PCT US2013/076367; cited from earlier work
[2] = Stability on storage under accelerated conditions (% AN, % LS); type: physicochemical
Procedure: The stability of sodium (2R,5S,13aR)-7,9-dioxo-10-((2,4,6-trifluorobenzyl)carbamoyl)-2,3,4,5,7,9,13,13a-octahydro-2,5-methanopyrido[1′,2′:4,5]pyrazino[2,1-b][1,3]oxazepin-8-olate Form I was tested. […] In Table 5, AN refers to area normalization and is the relative peak area of the active with respect to other impurities and components contained in the sample. LS refers to labile strength and is the amount of active present relative to the theoretical amount.

Structure (SMILES): O=C(NCc1c(F)cc(F)cc1F)c1cn2c(c(O)c1=O)C(=O)N1[C@H]3CC[C@H](C3)O[C@@H]1C2 [Formula I Form III, (2R,5S,13aR)-8-hydroxy-7,9-dioxo-N-(2,4,6-trifluorobenzyl)-2,3,4,5,7,9,13,13a-octahydro-2,5-methanopyrido[1′,2′:4,5]pyrazino[2,1-b][1,3]oxazepine-10-carboxamide]
- AUC(0-t) [1]: 27 ± 13 µM·h
- Cmax [1]: 6 ± 2 µM
- bioavailability [1]: 10 ± 6%

Structure (SMILES): O=C(NCc1c(F)cc(F)cc1F)c1cn2c(c(O)c1=O)C(=O)N1[C@H]3CC[C@H](C3)O[C@@H]1C2 [Formula I, (2R,5S,13aR)-8-hydroxy-7,9-dioxo-N-(2,4,6-trifluorobenzyl)-2,3,4,5,7,9,13,13a-octahydro-2,5-methanopyrido[1′,2′:4,5]pyrazino[2,1-b][1,3]oxazepine-10-carboxamide]
- anti-viral activity (in words) (HIV): demonstrates anti-viral activity

Structure (SMILES): O=C(NCc1c(F)cc(F)cc1F)c1cn2c(c([O-])c1=O)C(=O)N1[C@H]3CC[C@H](C3)O[C@@H]1C2.[Na+] [Formula II Form I, sodium (2R,5S,13aR)-7,9-dioxo-10-((2,4,6-trifluorobenzyl)carbamoyl)-2,3,4,5,7,9,13,13a-octahydro-2,5-methanopyrido[1′,2′:4,5]pyrazino[2,1-b][1,3]oxazepin-8-olate]
- AUC(0-t) [1]: 71 ± 16 µM·h
- Cmax [1]: 13 ± 1 µM
- bioavailability [1]: 28 ± 7%
- % AN (area normalization) ([2]; 25° C./60% RH (open), 1 week): 95.0 ± 0.2%
- % LS (labile strength) ([2]; 25° C./60% RH (open), 1 week): 104.8 ± 0.1%
- % AN (area normalization) ([2]; 25° C./60% RH (open), 2 weeks): 94.4 ± 0.1%
- % LS (labile strength) ([2]; 25° C./60% RH (open), 2 weeks): 101.6 ± 0.1%
- % AN (area normalization) ([2]; 25° C./60% RH (open), 4 weeks): 94.4 ± 0.0%
- % LS (labile strength) ([2]; 25° C./60% RH (open), 4 weeks): 103.0 ± 0.8%
- % AN (area normalization) ([2]; 40° C. (closed), 1 week): 95.2 ± 0.3%
- % LS (labile strength) ([2]; 40° C. (closed), 1 week): 108.0 ± 0.2%
- % AN (area normalization) ([2]; 40° C. (closed), 2 weeks): 94.4 ± 0.1%
- % LS (labile strength) ([2]; 40° C. (closed), 2 weeks): 102.4 ± 0.1%
- % AN (area normalization) ([2]; 40° C. (closed), 4 weeks): 94.4 ± 0.0%
- % LS (labile strength) ([2]; 40° C. (closed), 4 weeks): 97.0 ± 0.0%
- % AN (area normalization) ([2]; 40° C./75% RH (open), 1 week): 94.9 ± 0.1%
- % LS (labile strength) ([2]; 40° C./75% RH (open), 1 week): 103.3 ± 6.9%
- % AN (area normalization) ([2]; 40° C./75% RH (open), 2 weeks): 94.4 ± 0.0%
- % LS (labile strength) ([2]; 40° C./75% RH (open), 2 weeks): 108.5 ± 0.4%
- % AN (area normalization) ([2]; 40° C./75% RH (open), 4 weeks): 94.4 ± 0.0%
- % LS (labile strength) ([2]; 40° C./75% RH (open), 4 weeks): 102.9 ± 0.1%
- % AN (area normalization) ([2]; Starting material, 0 weeks): 94.4 ± 0.1%
- % LS (labile strength) ([2]; Starting material, 0 weeks): 99.8 ± 0.1%
- Stability (in words) ([2]; after four weeks of storage under accelerated conditions): stable
